The nature of test [1]: Weight increase in growing male rats, experiment 2 (10 days s.c.). The format is in vivo, Male Wistar rats. The procedure:
(§1) Animals: Male Wistar rats were kept in group cages, with three animals per cage, from delivery and throughout the period of experiments. The individual animals were marked so that they could be identified throughout the experiment duration. The animals weight an average of 152 g upon arrival. A reversed light dark (12:12 h) cycle was used with the dark period onset at 0600 hrs. Altogether fifty-six (56) rats were used in this study (experiment 1+2). The animals were delivered from the breeder Taconic (Denmark). The study protocol was approved by the Regional Ethics Committee of Umea University, Sweden.
(§2) Feeding: Standard chow and water were available ad libitum. A reversed 12-h dark-light cycle with lights off at 10.00 am and lights on at 22.00 pm was used. For identification, the rats were marked with a permanent marker on the tail. To avoid the endogenous allopregnanolone fluctuations that are present in the estrous cycle of female rats, male rats were chosen (Frye et al. 2000). The animals were allowed to acclimatize for at least 3 weeks before start of the experimental sessions. During this period, the rats were repeatedly handled and allowed habituation to the new environment and to all new procedures, to minimize stress during the experiments.
(§3) After 14 days of triad housing, handling and injection training of the animals, the animals were treated for 5 days with IV injections in experiment 1 and 10 days with a daily subcutaneous injection of the assigned treatment in experiment 2 (Table 3 and 4). The injections were given at 08.00 every morning. The animals were weighed the day before onset of the treatment and at the last day of injection i.e. on the 5th or 10th day of treatment. Weight was taken at the time of the last injection. […] The results are shown in FIG. 2 (experiment 1) and FIG. 3 (experiment 2), respectively.

A short description of test [2]: Weight increase in growing male rats, experiment 1 (5 days IV). It counts as in vivo, Male Wistar rats. The procedure:
as §1, §2, §3

Test [3] deals with T1, GABAA receptor subtype α1β2γ2 (Homo sapiens, UniProt P14867+P47870).
T1 construct: expressed in transfected cells
T1 sequence (P14867 28-456): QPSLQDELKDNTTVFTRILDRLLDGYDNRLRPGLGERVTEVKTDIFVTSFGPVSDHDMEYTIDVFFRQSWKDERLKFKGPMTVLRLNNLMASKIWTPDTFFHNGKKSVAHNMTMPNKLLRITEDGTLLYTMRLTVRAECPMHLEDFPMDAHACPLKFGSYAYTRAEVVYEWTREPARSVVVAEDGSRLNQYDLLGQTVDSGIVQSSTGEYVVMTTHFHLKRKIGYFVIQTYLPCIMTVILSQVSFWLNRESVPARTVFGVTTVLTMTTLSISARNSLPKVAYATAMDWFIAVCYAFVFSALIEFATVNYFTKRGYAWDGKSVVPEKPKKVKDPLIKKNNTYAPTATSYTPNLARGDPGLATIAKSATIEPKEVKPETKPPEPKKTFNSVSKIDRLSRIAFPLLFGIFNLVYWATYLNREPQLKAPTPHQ
T1 sequence (P47870 25-512 limits assumed): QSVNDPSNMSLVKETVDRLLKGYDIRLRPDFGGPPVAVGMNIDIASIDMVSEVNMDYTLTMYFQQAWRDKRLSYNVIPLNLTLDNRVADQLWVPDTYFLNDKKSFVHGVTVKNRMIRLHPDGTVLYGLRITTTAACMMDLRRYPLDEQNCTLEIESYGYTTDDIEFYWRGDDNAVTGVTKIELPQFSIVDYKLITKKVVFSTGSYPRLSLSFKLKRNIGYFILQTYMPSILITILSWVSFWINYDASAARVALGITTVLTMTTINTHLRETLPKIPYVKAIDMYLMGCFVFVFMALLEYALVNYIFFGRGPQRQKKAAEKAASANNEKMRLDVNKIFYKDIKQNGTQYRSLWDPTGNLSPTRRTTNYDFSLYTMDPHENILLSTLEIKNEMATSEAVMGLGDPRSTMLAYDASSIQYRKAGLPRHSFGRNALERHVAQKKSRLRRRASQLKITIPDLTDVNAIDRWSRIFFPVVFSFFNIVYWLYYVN
T1 sequence (P18507 40-475 partner): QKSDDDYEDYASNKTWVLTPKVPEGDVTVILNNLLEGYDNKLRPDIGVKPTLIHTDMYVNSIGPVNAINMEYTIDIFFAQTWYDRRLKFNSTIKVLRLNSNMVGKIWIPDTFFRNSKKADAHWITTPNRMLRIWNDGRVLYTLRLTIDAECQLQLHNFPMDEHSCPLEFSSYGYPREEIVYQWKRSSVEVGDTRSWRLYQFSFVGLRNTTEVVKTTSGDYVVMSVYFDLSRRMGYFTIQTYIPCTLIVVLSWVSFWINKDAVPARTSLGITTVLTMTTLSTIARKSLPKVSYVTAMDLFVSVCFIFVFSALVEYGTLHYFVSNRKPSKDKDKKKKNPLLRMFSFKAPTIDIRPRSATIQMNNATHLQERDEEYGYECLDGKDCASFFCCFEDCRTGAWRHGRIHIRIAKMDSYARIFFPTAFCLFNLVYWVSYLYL
Briefly: Patch clamp on GABAA receptor subtype α1β2γ2, essentially as described in Example 2. The format is cell-based.

Test [4] concerns GABAA receptor. The conditions noted are these: table 3 in WO 09/142594; cited from earlier work.
Test [5] has as its target T2, human α3β3γ2L GABAA receptor subtype (Homo sapiens, UniProt P28472+P34903).
T2 construct: expressed in transfected cells; host or cells: HEK-293 cells (wild-type cells obtained from Pasteur Institute, Paris), permanently transfected
Description: Whole-cell patch clamp (Dynaflow) on HEK-293 cells expressing the GABAA receptor α3β3γ2L subtype. It counts as cell-based. To be noted: for 100 μM GABA mediated current response, area under curve, Mean ± SEM: 1 μM steroid + 100 μM GABA, relative to 100 μM GABA (set as 0%); for reduction (block) of the THDOC enhanced effect / effect on GABAs own effect on current response / reduction of the GABA effect: 100 μM GABA; for reduction (block) of the THDOC enhanced effect / reduction of the GABA effect: stated as size of reduction; for activation of the receptor / own effect in absence of GABA: steroid alone, in absence of GABA and/or THDOC. The procedure:
Aim: To investigate the effect of 3α-ethynyl-3β-hydroxy-5α-androstan-17-methoxime and 3α-ethyl-3β-hydroxy-5α-androstan-17-oxime, respectively, on the GABAA receptor function. Experiments were performed both in absence and in presence of the GAMS tetrahydrodeoxycorticosterone (THDOC), in the absence and presence of GABA. In these tests the protocol was optimized to be similar to the physiological conditions in the synaptic cleft.
Cell culture: Wild-type HEK-293 cells passage 4 (obtained from Pasteur Institute, Paris, France), permanently transfected with cDNA to express the human α3β3γ2L GABAA receptor subtype, were seeded in cell bind culture flasks, grown and maintained at the temperature of +37° C., with a gas mixture of 5% CO2 in the cell incubator. The transfected cells were used for patch-clamp experiments minimum one passages after defrosting and 3-5 days after seeding. The α3β3γ2L cells were seeded for maximal 15 times.
Electrophysiological recordings: Whole cell patch technique was used to record whole-cell currents from the cells. Patch electrodes were pulled from 1.5 mm O.D., 0.86 mm I.D. borosilicate capillary glass without filament. […] After compensation for liquid junction potential a steady holding potential of −17 mV was used in all experiments. The cells were added to the chip (see below) and kept in EC solution (see above). EC solution with or without steroids and GABA were applied by the Dynaflow™ system (see below). All experiments were performed at room temperature (21-23° C.).
Dynaflow™ system: Dynaflow™ system with Resolve chips was used for all patch-clamp experiments including steroids. The Resolve chip consists of a glass chip enclosed by a PEEK plastic top part and a supporting plastic bottom part. Both wells and channels are glass coated. The channel width is 150 μm and the height 50 μm. The well volume is 150 μL. Run time at the flow rate of 26 μL/min was 90 min. The pump settings were as follows: BD Plastikpak™ 2 mL syringe with inner diameter of 8.1 mm was used. The syringe pump flow rate for Resolve chip was 26 μL/min.
The Resolve chip allows synchronized control of switching between 16 experimental solutions. Laminar flow at each solution outlet of the microfluidic chip prevents mixing, and a computer-controlled stage motor is used to move the chip relative to the patch pipette, allowing for relatively rapid solution exchange around the membrane patch. PClamp 9.0 software, DigiData 1322A converter and AxonPatch 200B were used to generate command pulses and collect data. Clampfit 10.3, Prism 6.0 and excel were used for data analyzes.
GABA and steroids: GABA was dissolved in EC-solution by ultrasound for about 20 minutes at maximal 40° C. to the concentration of 10 mM.
THDOC was dissolved in ethanol 99.5% to the concentration of 0.2 mM and tested steroids dissolved in ethanol 99.5% to the concentration of 2 mM (with ultrasound). The final ethanol concentration was 0.1% in all end-solutions, including the wash solution (EC) and the solution with GABA alone. End-solutions are the solutions added into the wells of the chip.
Protocol: The binding site of THDOC is in the […] region of the receptor. To achieve stable response, the cell was exposed to steroid (THDOC and/or steroid) 20 seconds before GABA application. The standard protocol as follow: 20 s preincubation of steoids (100 nM THDOC alone or in combination with one of 1 μM 3α-ethynyl-3β-hydroxy-5α-androstan-17-methoxime and 3α-ethyl-3β-hydroxy-5α-androstan-17-oxime), followed by 2 s application of 100 μM GABA±steroids (100 nM THDOC alone or in combination with one of 1 μM 3α-ethynyl-3β-hydroxy-5α-androstan-17-methoxime and 3α-ethyl-3β-hydroxy-5α-androstan-17-oxime). Washout time was 120 s.
Steroid (3α-ethynyl-3β-hydroxy-5α-androstan-17-methoxime or 3α-ethyl-3β-hydroxy-5α-androstan-17-oxime)+THDOC, in absence of GABA, were therefore not analyzed. […]

The mark [6] stands for this setting: 1 mg/kg s.c. + 5 mg/kg progesterone + 10 μg/kg 17β-estradiol.
Where [7] appears, read: 2 mg/kg IV daily for 5 days, in 10% 2-Hydroxypropyl-β-cyclodextrin.

Values joined by “and” are separate entries in the source; they are usually repeats but may differ in a detail not shown here. Identical values can stand only once. “Also recorded” adds a separate entry of the source.

T2 sequence (P34903 29-492): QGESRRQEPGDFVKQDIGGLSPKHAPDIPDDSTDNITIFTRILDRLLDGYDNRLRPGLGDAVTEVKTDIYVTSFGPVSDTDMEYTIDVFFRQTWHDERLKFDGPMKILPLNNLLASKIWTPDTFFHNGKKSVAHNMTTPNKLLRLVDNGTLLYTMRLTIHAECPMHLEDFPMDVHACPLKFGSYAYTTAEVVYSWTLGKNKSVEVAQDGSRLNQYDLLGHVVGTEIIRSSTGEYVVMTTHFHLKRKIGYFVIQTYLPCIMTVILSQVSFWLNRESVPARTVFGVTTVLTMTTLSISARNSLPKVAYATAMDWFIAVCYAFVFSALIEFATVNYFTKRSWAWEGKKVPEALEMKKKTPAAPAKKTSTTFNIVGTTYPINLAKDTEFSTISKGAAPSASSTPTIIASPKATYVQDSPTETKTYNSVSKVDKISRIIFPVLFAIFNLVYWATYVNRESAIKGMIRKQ
T2 sequence (P28472 26-473): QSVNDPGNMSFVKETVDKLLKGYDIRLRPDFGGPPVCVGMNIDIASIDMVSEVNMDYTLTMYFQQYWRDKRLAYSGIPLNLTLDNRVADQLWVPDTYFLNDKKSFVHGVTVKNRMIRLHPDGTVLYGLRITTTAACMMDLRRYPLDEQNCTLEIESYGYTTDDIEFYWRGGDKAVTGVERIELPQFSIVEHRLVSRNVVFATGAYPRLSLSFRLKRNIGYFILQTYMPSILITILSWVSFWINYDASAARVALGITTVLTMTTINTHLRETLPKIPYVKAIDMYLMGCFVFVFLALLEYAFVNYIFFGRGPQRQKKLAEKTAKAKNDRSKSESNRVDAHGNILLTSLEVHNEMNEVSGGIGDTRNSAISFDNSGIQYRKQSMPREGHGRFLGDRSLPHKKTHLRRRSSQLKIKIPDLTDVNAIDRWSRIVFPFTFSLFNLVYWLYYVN
T2 sequence (P18507 40-475 partner): as the sequence (P18507 40-475 partner) above

Turning to `C#C[C@]1(O)CC[C@@]2(C)[C@@H](CC[C@@H]3[C@@H]2CC[C@]2(C)C(=O)CC[C@@H]32)C1` [3α-ethynyl-3β-hydroxy-5α-androstan-17-one], in test [1] (setting [6]), the “weight difference compared to vehicle” value was -33 ± 4.4 g and the “weight difference versus E+P control rats” value was -23.9 ± 4.4 g. The “weight difference versus E+P control rats” value in test [1] (5 mg/kg s.c. + 5 mg/kg progesterone + 10 μg/kg 17β-estradiol) was -20.4 ± 5.2 g. Moreover, the “weight difference after 10 days of treatment compared to vehicle” value in test [1] (s.c.) is “over 20%”. Moreover, in test [2] (setting [7]), the “Mean weight increase since arrival” value was 97.43 g and the “Mean weight increase since treatment start” value stood at 11.86 g. The “increase in weight compared to vehicle treated groups” value in test [2] (2 mg/kg IV, 5 days) is given as “significantly lower”. In test [3] (1 μM steroid), the “Effect against GABAs agonistic effect, α1β2γ2” value is −1.9 ± 2.4%. Further, the “Antagonism of 100 nM THDOC-enhancement, α1β2γ2” value in test [3] (1 μM steroid + THDOC) is “No effect”. Besides, in test [4], the “effect as a GAMSA or GAMS” value is “no effect”. For the same compound, the “Antagonism of 100 nM THDOC-enhancement, α3β3γ2” value in test [5] (1 μM steroid + THDOC, Table 6) is −166 ± 19.9%,. For the same compound, in test [5] (1 μM steroid, Table 6), the “Effect against GABAs agonistic effect, α3β3γ2” value was −46 ± 1.3%,.

Consider `C#C[C@]1(O)CC[C@]2(C)C3CC[C@]4(C)/C(=N\OC)CCC4C3CC[C@H]2C1` (stereo partly drawn) [GR3053, 3α-ethynyl-3β-hydroxy-5α-androstan-17-methoxime], for which, in test [5], the “100 μM GABA mediated current response, area under curve, Mean ± SEM” value was −20 ± 2.1% and the “activation of the receptor / own effect in absence of GABA” value is recorded as “None”. In addition, the “100 μM GABA mediated current response, area under curve, Mean ± SEM” value in test [5] (listed as 3α-ethynyl-3β-hydroxy-5α-androstan-17-methoxime) was −20%. For the same compound, in test [5] (1 μM steroid, 100 nM THDOC), the “reduction (block) of the THDOC enhanced effect” value was > 100% and 190%. In addition, in test [5] (1 μM steroid), the “effect on GABAs own effect on current response” value is given as “some antagonistic effect; also recorded: partial antagonistic effect” and the “reduction of the GABA effect” value was 20%.

`CC[C@]1(O)CC[C@]2(C)C3CC[C@]4(C)/C(=N\O)CCC4C3CC[C@H]2C1` (stereo partly drawn) [GR3055, 3α-ethyl-3β-hydroxy-5α-androstan-17-oxime]: in test [5], the “100 μM GABA mediated current response, area under curve, Mean ± SEM” value is given as −18 ± 3.4%, and the “activation of the receptor / own effect in absence of GABA” value was “None”. Besides, the “100 μM GABA mediated current response, area under curve, Mean ± SEM” value in test [5] (listed as 3α-ethyl-3β-hydroxy-5α-androstan-17-oxime) was −18%. The “reduction (block) of the THDOC enhanced effect” value in test [5] (1 μM steroid, 100 nM THDOC) turned out to be 57%. Also, in test [5] (1 μM steroid), the “effect on GABAs own effect on current response” value is reported as “partial antagonistic effect” and the “reduction of the GABA effect” value is listed as 18%.

Turning to `C[C@]12CC[C@@H](O)C[C@@H]1CC[C@@H]1[C@@H]2CC[C@]2(C)[C@@H](C(=O)CO)CC[C@@H]12` [THDOC, 3α, 21-dihydroxy-5α-pregnan-20-one, reference compound], in test [5] (100 nM THDOC, in absence of GABA), the “activation of the α3β3γ2L GABAA receptor by THDOC alone” value is listed as “did not activate”.

Source of the values: patent publication US20240383941A1, “3-ALPHA SUBSTITUTED 3-BETA-HYDROXY-17-OXIMATED ANDROSTANE COMPOUND FOR MODULATION OF THE ALPHA-3 SUBTYPE OF THE GABAA RECEPTOR” (priority 2021, published 2024).
